A short description of data set [1]: Solubility of the compound in aqueous solution at 10 mg/ml by UV spectroscopy. Format: physicochemical.
Data set [2] deals with Blood. Put plainly: Half life in human blood at 10 mM by reversed-phase HPLC/UV analysis. The following applies: 10000 µM. The class given is ADME, tissue-based.
A short description of data set [3]: Chemical stability of the compound in aqueous solution at 10 mg/ml by HPLC after 1 month. The class given is physicochemical. The conditions noted are these: buffer, 730.5 h.
The subject of data set [4] is Plasma. Kind of data set: Half life in human plasma at 10 mM by reversed-phase HPLC/UV analysis. The class given is ADME, cell-free. The following applies: 10000 µM.
Data set [5] deals with Plasma. Put plainly: Metabolic stability of the compound in human plasma at 10 mM after 2 mins by reversed-phase HPLC/UV analysis. Format: ADME, cell-free. The conditions noted are these: 10000 µM.
The nature of data set [6]: Chemical stability of the compound in aqueous solution at 10 mg/ml by HPLC up to 2 hrs. Format: physicochemical. The conditions noted are these: buffer.
The subject of data set [7] is Blood. Put plainly: Prodrug conversion in human blood assessed as release of 4-[4-((Thiiran-2-yl)methylsulphonyl)phenoxy]benzamine at 10 mM after 30 mins by reversed-phase HPLC/UV analysis. The class given is ADME, tissue-based. The conditions noted are these: 0.5 h, 10000 µM.

Molecules are shown by their SMILES.

The compound `N=C(N)NCCC[C@H](NC(=O)[C@@H](N)CCCNC(=N)N)C(=O)Nc1ccc(Oc2ccc(S(=O)(=O)CC3CS3)cc2)cc1` (some centres undefined) yielded a solubility in data set [1] greater than 10 mg/mL. The t1/2 amounted to 5.9 min in the data set on Blood [2] and 11.8 min in the data set on Plasma [4]. Besides, the Stability result in data set [3] was “Stable”.
`NCC(=O)Oc1ccc(Oc2ccc(S(=O)(=O)CC3CS3)cc2)cc1` (centres undefined) displayed a solubility in data set [1] greater than 10 mg/mL. Besides, the Stability result (with Plasma [5]; in data set [6]) was “Unstable” in each case.
Take `NCCCC[C@H](N)C(=O)Nc1ccc(Oc2ccc(S(=O)(=O)CC3CS3)cc2)cc1` (some centres undefined): in data set [1], the solubility was greater than 10 mg/mL. Also, the values for the t1/2 in the data set with Blood [2] and with Plasma [4] were 15.3 min and 25.1 min, respectively. Also, the Stability entry in data set [3] was “Stable”. The Drug metabolism result with Blood [7] is reported as “Active”.
Compound `N[C@@H](CCC(=O)O)C(=O)Oc1ccc(Oc2ccc(S(=O)(=O)CC3CS3)cc2)cc1` (some centres undefined) registered a solubility in data set [1] greater than 10 mg/mL. Also, the Stability result (in the data set on Plasma [5]; in data set [6]) was “Unstable” each time.
For `NCCCC[C@H](N)C(=O)Oc1ccc(Oc2ccc(S(=O)(=O)CC3CS3)cc2)cc1` (some centres undefined), the solubility in data set [1] was greater than 10 mg/mL. The Stability result (in the data set with Plasma [5]; in data set [6]) was “Unstable” throughout.
Turning to `N=C(N)NCCC[C@H](N)C(=O)Oc1ccc(Oc2ccc(S(=O)(=O)CC3CS3)cc2)cc1` (some centres undefined), the solubility in data set [1] is greater than 10 mg/mL. Moreover, the Stability result (in the data set with Plasma [5]; in data set [6]) was “Unstable” each time.
In turn, `N=C(N)NCCC[C@H](NC(=O)[C@@H](N)CCCNC(=N)N)C(=O)Oc1ccc(Oc2ccc(S(=O)(=O)CC3CS3)cc2)cc1` (some centres undefined) displayed a solubility in data set [1] greater than 10 mg/mL. Besides, the Stability result (in the data set with Plasma [5]; in data set [6]) was “Unstable” throughout.

What is called solubility is the dissolved amount per volume that the medium holds.

For the origin of these results see ChEMBL document CHEMBL1833788, “Selective water-soluble gelatinase inhibitor prodrugs” (J Med Chem, 2011).
